Measurements: the supplement of paper PMC5908809

How the values were obtained:
[1] = test system: SNK-6 (IL-2 2.5 ng/mL); test: percent inhibition of viability; higher = more inhibition; details: 72 h
[2] = test system: normal primary NK cells, pool 3 (3 donors) (IL-2 2.5 ng/mL); test: as above; details: 72 h
[3] = test system: NK-YS (IL-2 2.5 ng/mL); test: as above; details: 72 h
[4] = test system: NK-92 (IL-2 2.5 ng/mL); test: as above; details: 72 h
[5] = test system: normal primary NK cells, pool 2 (3 donors) (IL-2 2.5 ng/mL); test: as above; details: 72 h
[6] = test system: KAI3 (IL-2 2.5 ng/mL); test: as above; details: 72 h
[7] = test system: IMC-1 (IL-2 20 ng/mL); test: as above; details: 72 h
[8] = test system: normal primary NK cells, pool 1 (3 donors) (IL-2 2.5 ng/mL); test: as above; details: 72 h
[9] = test system: NKL (IL-2 2.5 ng/mL); test: as above; details: 72 h
[10] = test system: KHYG-1 (IL-2 2.5 ng/mL); test: as above; details: 72 h
[11] = test system: normal primary NK cells, pool 1 (3 donors), resting (IL-2 0 ng/mL); test: as above; details: 72 h
[12] = test system: YT (IL-2 2.5 ng/mL); test: as above; details: 72 h
[13] = test system: DERL-7 (IL-2 2.5 ng/mL); test: as above; details: 72 h
[14] = test system: SNK-6 (IL-2 2.5 ng/mL); test: drug sensitivity score (DSS) (DSS units); higher = more sensitive; extreme values may be limits of the assay; details: 72 h
[15] = test system: normal primary NK cells, pool 3 (3 donors) (IL-2 2.5 ng/mL); test: as above; details: 72 h
[16] = test system: NK-YS (IL-2 2.5 ng/mL); test: as above; details: 72 h
[17] = test system: NK-92 (IL-2 2.5 ng/mL); test: as above; details: 72 h
[18] = test system: normal primary NK cells, pool 2 (3 donors) (IL-2 2.5 ng/mL); test: as above; details: 72 h
[19] = test system: KAI3 (IL-2 2.5 ng/mL); test: as above; details: 72 h
[20] = test system: IMC-1 (IL-2 20 ng/mL); test: as above; details: 72 h
[21] = test system: normal primary NK cells, pool 1 (3 donors) (IL-2 2.5 ng/mL); test: as above; details: 72 h
[22] = test system: NKL (IL-2 2.5 ng/mL); test: as above; details: 72 h
[23] = test system: KHYG-1 (IL-2 2.5 ng/mL); test: as above; details: 72 h
[24] = test system: normal primary NK cells, pool 1 (3 donors), resting (IL-2 0 ng/mL); test: as above; details: 72 h
[25] = test system: YT (IL-2 2.5 ng/mL); test: as above; details: 72 h
[26] = test system: DERL-7 (IL-2 2.5 ng/mL); test: as above; details: 72 h
[27] = test system: normal NK cells expanded with K562-aAPC; test: percent inhibition of viability; higher = more inhibition; details: 72 h, IL-2 2.5 ng/mL
Description: (§1)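 Drug sensitivity and resistance testing on K562-aAPC-expanded normal NK cells: 5 concentrations (10-fold steps over a 10,000-fold range), 72 h at 37 °C, viability by CellTiter-Glo normalised to DMSO and benzethonium chloride controls; DSS from the fitted curve.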

[28] = test system: normal NK cells expanded with K562-aAPC; test: drug sensitivity score (DSS) (DSS units); higher = more sensitive; extreme values may be limits of the assay; details: 72 h; IL-2 2.5 ng/mL
Description: as §1

CC(C)c1c(C(=O)Nc2ccccc2)c(-c2ccccc2)c(-c2ccc(F)cc2)n1CC[C@@H](O)C[C@@H](O)CC(=O)O [Atorvastatin] (max concentration tested 10000 nM)
percent inhibition of viability [%]
Details | 1 nM | 10 nM | 100 nM | 1000 nM | 10000 nM
[1] | -3.12 | 4.06 | 1.93 | 0.27 | 41.9
[2] | -6.89 | -6.08 | -9.88 | -12.8 | 4.72
[3] | 0.24 | 1.58 | 11.9 | 64.8 | 103
[4] | -10.9 | -15.5 | 4.4 | -6.37 | 58.2
[5] | -7.16 | -1.31 | 1.87 | -2.86 | 29.2
[6] | -7.62 | -6.46 | -2.5 | 3.32 | 63.8
[7] | -2.01 | 0.19 | 4.44 | 25.6 | 99.2
[8] | -3.15 | -14.1 | -7.04 | -6.72 | 27.1
[9] | -16 | -12.1 | 14.8 | 83.8 | 102
[10] | 1.48 | -0.11 | 9.42 | 7.71 | 81.3
[11] | -1.6 | -6.76 | -4.51 | 2.54 | 45.6
[12] | 0.23 | 1.11 | 4.51 | 22.4 | 99.1
[13] | -2.58 | -0.16 | -3.51 | 6.56 | 54.2
[27] | -5.69 | -0.26 | -0.77 | -4.84 | 28.3

Details | drug sensitivity score
[14] | 2.14
[15] | 0
[16] | 14
[17] | 2.7
[18] | 1.06
[19] | 3.95
[20] | 9.38
[21] | 0.79
[22] | 17.2
[23] | 5.76
[24] | 2.71
[25] | 9
[26] | 4
[28] | 0.92

CCC1(c2ccc(N)cc2)CCC(=O)NC1=O (stereo not drawn) [Aminoglutethimide] (max concentration tested 10000 nM)
percent inhibition of viability [%]
Details | 1 nM | 10 nM | 100 nM | 1000 nM | 10000 nM
[1] | 21.1 | 17.4 | 10.2 | -16 | -32.7
[2] | 4.12 | -2.09 | 1.89 | 3.88 | 6.3
[3] | 4.81 | 6.87 | 2.26 | 7.56 | 4.69
[4] | 7.96 | 0.54 | 12.4 | 0.81 | 11.1
[5] | 3.13 | 3.88 | 0.19 | 1.2 | 8.45
[6] | 14 | 10.4 | 8.76 | 9.73 | 9.01
[7] | 1.84 | 4.93 | 3.29 | 2.36 | 3.88
[8] | -5.3 | -8.94 | -8.74 | -4.93 | 1.17
[9] | 28.3 | 0.83 | 18.7 | -2.97 | 15.1
[10] | 16.4 | 0 | 11 | 1.44 | 15.2
[11] | -3.93 | -9.4 | -1.78 | -7.06 | 21.1
[12] | 13.1 | 2.62 | 11.4 | 2.84 | 12.5
[13] | 6.92 | 1.97 | 7.28 | -2.32 | 7.58
[27] | 1.05 | -2.97 | -1 | -2.85 | 0.83

Details | drug sensitivity score
[14] | 0
[15] | 0
[16] | 0
[17] | 0
[18] | 0
[19] | 0
[20] | 0
[21] | 0
[22] | 0.06
[23] | 0
[24] | 0.43
[25] | 0
[26] | 0
[28] | 0
